The text below walks through data of paper PMC12543186, “Discovery of C-12 dithiocarbamate andrographolide analogue as a novel antioxidant and α-glucosidase inhibitors: In vitro and in silico studies” (PLOS One, 2025).

Each structure is given as a SMILES string. pIC50, pKd: −log10 of the molar value. Values joined by “and” are separate entries in the source; they are usually repeats but may differ in a detail not shown here. Identical values can stand only once. Like-named read-outs stand apart in the source and are kept apart here.

Assay [1] deals with T1, α-glucosidase from Saccharomyces cerevisiae (Saccharomyces cerevisiae, UniProt P38158). Description: α-glucosidase inhibition activity (p-NPG substrate). Type of assay: biochemical. The procedure: An in vitro α-glucosidase inhibitory assay is commonly used to evaluate the inhibitory effects of various compounds on the enzyme α-glucosidase, which is involved in carbohydrate digestion. Inhibiting this enzyme results in slower glucose absorption, which can be beneficial for managing postprandial blood sugar levels in diabetic conditions. This assay was modified from the methods described by Yusuf et al.. The procedure involved mixing 25 μL of the sample, 150 μL of phosphate buffer saline (PBS) pH 7.4, and 75 μL of 10 mM p-NPG. The mixture was incubated at 37 °C for 10 min. Next, 50 μL of α-glucosidase enzyme from Saccharomyces cerevisiae at a concentration of 0.1 U/mL was added, then incubated at 37 °C for 10 min. To terminate the reaction, […] of 0.1 M sodium carbonate (Na2CO3) was added to the mixture. The absorbance was measured using a microplate reader. The percentage of α-glucosidase inhibition was calculated as follows:
α−glucosidase inhibition(%)=(1–{A−B/C−D})×100
Where A was the absorbance of the sample with α-glucosidase enzyme, B was the absorbance of the sample, C was the absorbance of vehicle with α-glucosidase enzyme, and D was the absorbance of the vehicle (blank).

Assay [2] in a line: Ferric reducing antioxidant power (FRAP) activity. How it is done: The FRAP activity assay was performed to assess the reducing power ability to reduce ferric ions (Fe^3+) to ferrous ions (Fe^2+), following the established method described by Sekhon-Loodu and Rupasinghe. The FRAP reagent was freshly prepared by combining 300 mM acetate buffer pH 3.6, 10 mM 2,4,6- Tri(2-pyridyl)-s-triazine (TPTZ) dissolved in 40 mM HCl, and 20 mM FeCl3 in a ratio of 10:1:1. Ferrous sulfate (FeSO4) was used as a standard, with ascorbic acid serving as a control. The assay was conducted in a 96-well plate by mixing 20 μL of the sample, standard, or positive control with 80 μL of the FRAP solution. The mixture was then incubated for 20 minutes at room temperature, after which we measured absorbance at 595 nm using a microplate reader. The results were expressed as FRAP value, reported as ascorbic acid equivalent in μM (AAE, μM), providing a definitive measure of reducing power.

Assay [3] has as its target T1, α-glucosidase from Saccharomyces cerevisiae. Kind of assay: Surface plasmon resonance, steady-state affinity. Format: binding. The procedure: All experiments were conducted using a Biacore X100 instrument at 25 °C with a running buffer of 1X PBS-P+ (10 mM phosphate buffer pH 7.4, 2.7 mM KCl, 137 mM NaCl, 0.05% Tween 20) supplemented with 5% DMSO. Compounds were initially dissolved in DMSO to a final concentration of 14 mM. The stock solution was then diluted to 700 μM in 1.05X PBS-P+ to prepare a compound solution containing 1X PBS-P+ with 5% DMSO. This compound solution was utilized to prepare the required concentrations for injections into the Biacore system. α-glucosidase from Saccharomyces cerevisiae was immobilized onto a CM5 chip following standard amine coupling procedures: the CM5 chip, containing channel 1 and 2, was activated with an injection of NHS/EDC mixture with a contact time of 540 s at a flow rate of 10 µL/min. This was followed by multiple injections of α-glucosidase dissolved in 10 mM sodium acetate pH 4.0 (50 µg/mL) onto channel 2, also with a contact time of 540 s at a flow rate of 10 µL/min. Both channels were inactivated by an injection of 1M ethanolamine at a flow rate of 10 µL/min for 540 s. An immobilization level of 3300 RU of α-glucosidase was achieved.
Multi-cycle affinity studies were conducted with a 100 s association phase and a 60 s dissociation phase, using a flow rate of 30 µL/min. Compounds were injected onto the chip at increasing concentrations of 7, 21, 70, 210, and 490 μM. Binding measurements were taken after reference subtraction of channel 1 (no immobilized α-glucosidase) and after subtracting the results from a blank injection with zero analyte concentration. All data evaluation was performed with Biacore X100 evaluation software (version 2.0).

Assay [4] in a line: DPPH radical scavenging activity. Particulars: for pIC50: 200 μM DPPH solution. The procedure:
The DPPH radical scavenging activity was conducted to thoroughly evaluate the antioxidant potential of andrographolide and its analogues. We modified the assay employing the Sekhon-Loodu and Rupasinghe methods. A DPPH solution was prepared in absolute ethanol, with a concentration of 200 μM. Next, 100 μL of DPPH solution was mixed with 100 μL of the sample in a 96-well plate. The mixture was then incubated for 30 minutes at room temperature. Following incubation, we measured the absorbance at 517 nm using a microplate reader. We tested the antioxidant properties of the compounds at a concentration of 500 μM to detect the weak-to-moderate antioxidants while addressing solubility limitations and minimizing assay artefacts, consistent with previous research. The DPPH radical scavenging activity was precisely expressed as a percentage of DPPH inhibition (% DPPH Inhibition). We selected candidates based on their higher inhibitory activity and prepared various concentrations of these candidates for testing. α-tocopherol, also known as vitamin E, was employed as a positive control. The % DPPH Inhibition was calculated as follows:
%DPPH Inhibition=(1–{A/B})×100
Where A was the absorbance of the DPPH with sample, and B was the absorbance of the DPPH with vehicle (blank).

[5] abbreviates: read-out: α-glucosidase inhibition (%), Mean, 31.2 μM.
Where [6] appears, read: read-out: α-glucosidase inhibition (%), Mean, 62.5 μM.
The mark [7] stands for this setting: read-out: α-glucosidase inhibition (%), Mean, 125 μM.
Setting [8] is: read-out: α-glucosidase inhibition (%), Mean, 250 μM.
[9] abbreviates: read-out: α-glucosidase inhibition (%), Mean, 500 μM.
Where [10] appears, read: read-out: α-glucosidase inhibition (%), Mean, 1000 μM.
Where [11] appears, read: read-out: α-glucosidase inhibition (%), Mean, 2000 μM.
Where [12] appears, read: read-out: α-glucosidase inhibition (%), replicate 1, 31.2 μM, first replicate column.
Setting [13] is: read-out: α-glucosidase inhibition (%), replicate 1, 62.5 μM, first replicate column.
[14] abbreviates: read-out: α-glucosidase inhibition (%), replicate 1, 125 μM, first replicate column.
[15] abbreviates: read-out: α-glucosidase inhibition (%), replicate 1, 250 μM, first replicate column.
Setting [16] is: read-out: α-glucosidase inhibition (%), replicate 1, 500 μM, first replicate column.
Where [17] appears, read: read-out: α-glucosidase inhibition (%), replicate 1, 1000 μM, first replicate column.
The mark [18] stands for this setting: read-out: α-glucosidase inhibition (%), replicate 1, 2000 μM, first replicate column.
Setting [19] is: read-out: α-glucosidase inhibition (%), replicate 2, 31.2 μM, second replicate column.
Where [20] appears, read: read-out: α-glucosidase inhibition (%), replicate 2, 62.5 μM, second replicate column.
[21] abbreviates: read-out: α-glucosidase inhibition (%), replicate 2, 125 μM, second replicate column.
Where [22] appears, read: read-out: α-glucosidase inhibition (%), replicate 2, 250 μM, second replicate column.
Where [23] appears, read: read-out: α-glucosidase inhibition (%), replicate 2, 500 μM, second replicate column.
[24] abbreviates: read-out: α-glucosidase inhibition (%), replicate 2, 1000 μM, second replicate column.
[25] abbreviates: read-out: α-glucosidase inhibition (%), replicate 2, 2000 μM, second replicate column.
Where [26] appears, read: read-out: α-glucosidase inhibition (%), replicate 3, 31.2 μM, third replicate column.
The mark [27] stands for this setting: read-out: α-glucosidase inhibition (%), replicate 3, 62.5 μM, third replicate column.
Where [28] appears, read: read-out: α-glucosidase inhibition (%), replicate 3, 125 μM, third replicate column.
The mark [29] stands for this setting: read-out: α-glucosidase inhibition (%), replicate 3, 250 μM, third replicate column.
[30] abbreviates: read-out: α-glucosidase inhibition (%), replicate 3, 500 μM, third replicate column.
Where [31] appears, read: read-out: α-glucosidase inhibition (%), replicate 3, 1000 μM, third replicate column.
Where [32] appears, read: read-out: α-glucosidase inhibition (%), replicate 3, 2000 μM, third replicate column.
The mark [33] stands for this setting: 500 μM, second replicate column.

T1 sequence (P38158 whole entry): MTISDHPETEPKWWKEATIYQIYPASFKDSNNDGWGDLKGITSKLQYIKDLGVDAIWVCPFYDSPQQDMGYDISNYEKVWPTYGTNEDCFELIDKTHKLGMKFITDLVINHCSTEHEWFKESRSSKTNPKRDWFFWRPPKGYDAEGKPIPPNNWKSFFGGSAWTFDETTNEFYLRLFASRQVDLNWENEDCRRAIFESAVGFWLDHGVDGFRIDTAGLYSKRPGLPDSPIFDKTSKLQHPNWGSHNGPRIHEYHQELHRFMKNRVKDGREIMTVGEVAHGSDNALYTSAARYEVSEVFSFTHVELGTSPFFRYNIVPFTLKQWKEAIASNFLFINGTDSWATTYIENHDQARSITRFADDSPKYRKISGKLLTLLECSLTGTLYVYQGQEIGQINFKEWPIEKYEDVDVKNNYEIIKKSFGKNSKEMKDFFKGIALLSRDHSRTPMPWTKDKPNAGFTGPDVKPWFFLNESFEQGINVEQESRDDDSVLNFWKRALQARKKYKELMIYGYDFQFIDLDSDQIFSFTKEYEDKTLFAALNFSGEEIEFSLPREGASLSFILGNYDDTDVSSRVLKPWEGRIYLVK

Turning to `C=C1CCC2C(C)(COC(C)=O)C(OC(C)=O)CCC2(C)C1CC(SC(=S)N1CCN(c2ccc(O)cc2)CC1)C1=CCOC1=O` (stereo not shown) [compound 3f], the negative-log IC50 (pIC50) in assay [1] (IC50 (α-glucosidase inhibitory activity), concentration range up to 2000 μM) is 3.39 and ~3.39; in assay [4], around 4.60. For the same compound, the inhibition at 31.2 µM in assay [1] (setting [5]) is -0.49%; in assay [1] (setting [12]), 3.15%; in assay [1] (setting [19]), -1.2%; in assay [1] (setting [26]), -3.42%. The inhibition at 62.5 µM in assay [1] (setting [6]) turned out to be 5.53%; in assay [1] (setting [13]) it was 5.24%; in assay [1] (setting [20]) it was 7.4%; in assay [1] (setting [27]), 3.94%. In addition, the inhibition at 125 µM in assay [1] (setting [7]) was found to be 15.2%; in assay [1] (setting [14]) it was 19.1%; in assay [1] (setting [21]) it was 17.6%; in assay [1] (setting [28]), 8.93%. For the same compound, the inhibition at 250 µM is 26.6% in assay [1] (setting [8]), 28.2% in assay [1] (setting [15]), 28.1% in assay [1] (setting [22]) and 23.5% in assay [1] (setting [29]). Further, the inhibition at 500 µM in assay [1] (setting [9]) turned out to be 56.3%; in assay [1] (setting [16]), 59.3%; in assay [1] (setting [23]), 57.1%; in assay [1] (setting [30]) it was 52.6%. In addition, the inhibition at 1000 µM in assay [1] (setting [10]) worked out at 78%; in assay [1] (setting [17]), 78.6%; in assay [1] (setting [24]) it was 78%; in assay [1] (setting [31]), 77.3%. For the same compound, the inhibition at 2000 µM in assay [1] (setting [11]) amounted to 81.9%; in assay [1] (setting [18]) it was 81.9%; in assay [1] (setting [25]) it was 81.9%; in assay [1] (setting [32]), 82%. In addition, the “FRAP, Ascorbic acid equivalent, replicate 1” value in assay [2] (500 μM, first replicate column) is listed as 109.9203 AAE, μM. For the same compound, the “FRAP, Ascorbic acid equivalent, replicate 2” value in assay [2] (setting [33]) was 87.9587 AAE, μM. Moreover, the “FRAP, Ascorbic acid equivalent, replicate 3” value in assay [2] (500 μM, third replicate column) is recorded as 67.0175 AAE, μM. In assay [2] (600 μM), this compound yielded an FRAP activity of 253.90 ± 47.40 AAE. The pKd in assay [3] was 4.89. Besides, the “fold stronger affinity than andrographolide” value in assay [3] (from SPR KD values) was “approximately 10 fold”. In addition, the “% Inhibition (DPPH), replicate 1” value in assay [4] (500 μM, first replicate column) stood at 85.7465%. In assay [4] (500 μM, mean of n = 3), the “% DPPH Inhibition, Mean” value is 84% and 84.47 ± 1.14% and 84.4719%. Besides, in assay [4] (setting [33]), the “% Inhibition (DPPH), replicate 2” value was determined as 83.5328%. In addition, in assay [4] (500 μM, third replicate column), the “% Inhibition (DPPH), replicate 3” value amounted to 84.1364%.
For `C[C@H]1O[C@H](O[C@H]2[C@H](O)[C@@H](O)[C@@H](O[C@H]3[C@H](O)[C@@H](O)C(O)O[C@@H]3CO)O[C@@H]2CO)[C@H](O)[C@@H](O)[C@@H]1N[C@H]1C=C(CO)[C@@H](O)[C@H](O)[C@H]1O` (stereo partly shown) [Acarbose, acarbose], in assay [1] (2000 μM), the “α-glucosidase inhibition (%), Mean” value was found to be 38.3925%. Moreover, the inhibition at 31.2 µM turned out to be 6.67% in assay [1] (setting [5]), 5.58% in assay [1] (setting [12]), 5.89% in assay [1] (setting [19]) and 8.54% in assay [1] (setting [26]). Moreover, the inhibition at 62.5 µM is 3.73% in assay [1] (setting [6]), 3.74% in assay [1] (setting [13]), 3.63% in assay [1] (setting [20]) and 3.82% in assay [1] (setting [27]). Moreover, the inhibition at 125 µM was 7.12% in assay [1] (setting [7]), 6.97% in assay [1] (setting [14]), 7.34% in assay [1] (setting [21]) and 7.06% in assay [1] (setting [28]). Besides, the inhibition at 250 µM in assay [1] (setting [8]) stood at 10.6%; in assay [1] (setting [15]), 10.5%; in assay [1] (setting [22]), 10.7%; in assay [1] (setting [29]), 10.5%. The inhibition at 500 µM in assay [1] (setting [9]) was found to be 31.1%; in assay [1] (setting [16]) it was 31.2%; in assay [1] (setting [23]), 31.1%; in assay [1] (setting [30]), 31.1%. For the same compound, the inhibition at 1000 µM in assay [1] (setting [10]) stood at 35.9%; in assay [1] (setting [17]) it was 36%; in assay [1] (setting [24]), 36.7%; in assay [1] (setting [31]), 34.8%. Besides, the inhibition at 2000 µM in assay [1] (setting [11]) was found to be 38.4%; in assay [1] (setting [18]) it was 37.5%; in assay [1] (setting [25]) it was 39.4%; in assay [1] (setting [32]), 38.3%.
`Cc1c(C)c2c(c(C)c1O)CC[C@@](C)(CCC[C@H](C)CCC[C@H](C)CCCC(C)C)O2` [α-tocopherol] gave a negative-log IC50 (pIC50) in assay [4] of around 4.60.
